Measurements as given in patent US20120004228A1, “Bis Aromatic Compounds for Use as LTC4 Synthase Inhibitors” (BIOLIPOX AB, priority 2009, published 2012).
pIC50: −log10 of the molar value.

The compounds below were run against T1, Recombinant human LTC4 synthase (Homo sapiens, UniProt Q16873) (assay: In vitro LTC4 synthase assay (LTA4 to LTC4, HTRF detection)).
T1 construct: made in house; host or cells: Pichia pastoris ('Piccia pastoralis' [sic])
T1 sequence (Q16873 1-150): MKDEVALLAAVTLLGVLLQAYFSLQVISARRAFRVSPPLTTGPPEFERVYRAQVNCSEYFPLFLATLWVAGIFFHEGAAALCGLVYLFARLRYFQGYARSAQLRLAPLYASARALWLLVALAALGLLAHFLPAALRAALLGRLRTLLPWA
Format: biochemical
Procedure: In the assay, LTC4 synthase catalyses the reaction where the substrate LTA4 is converted to LTC4. Recombinant human LTC4 synthase is expressed in Piccia pastoralis and the purified enzyme is dissolved in 25 mM tris-buffer pH 7.8 supplemented with 0.1 mM glutathione (GSH) and stored at −80° C. The assay is performed in phosphate buffered saline (PBS) pH 7.4 and 5 mM GSH in 384-well plates.
The following is added chronologically to each well:
1. 48 μL LTC4 synthase in PBS with 5 mM GSH. The total protein concentration in this solution is 0.5 μg/mL. 2. 1 μL inhibitor in DMSO (final concentration 10 μM). 3. Incubation of the plate at room temperature for 10 min. 4. 1 μL LTA4 (final concentration 2.5 μM). 5. Incubation of the plate at room temperature for 5 min. 6. 10 μL of the incubation mixture is analysed using homogenous time resolved fluorescent (HTRF) detection.

Compared with `CN(c1ccc(Cl)cc1)c1ccc(C(=O)c2cc(C(=O)O)cc(C(=O)Nc3ccccc3)c2)nc1` [Example 2:1, 3-{5-[(4-Chlorophenyl)(methyl)aminol]picolinoyl}-5-(phenylcarbamoyl)benzoic acid], `CN(c1ccc(Cl)cc1)c1ccc(C(=O)c2cc(NC(=O)c3ccccc3)cc(C(=O)O)c2)nc1` [2:8, 3-Benzamido-5-{5-[(4-chlorophenyl)(methyl)amino]picolinoyl}benzoic acid] is 0.32 log units higher in pIC50: 6.35 for the first, 6.67 for the second.

First: CC(=O)N(c1ccccc1)c1cc(C(=O)O)cc(C(=O)c2ccc(N(C)c3ccc(Cl)cc3)cn2)c1 [Example 9:23, 3-{5-[(4-Chlorophenyl)(methyl)amino]picolinoyl}-5-(N-phenylacetamido)benzoic acid]
Second: CN(c1ccc(Cl)cc1)c1ccc(C(=O)c2cc(C(=O)O)cc(N(C)c3ccccc3)c2)nc1 [9:6, 3-{5-[(4-Chlorophenyl)(methyl)amino]picolinoyl}-5-[methyl(phenyl)amino]-benzoic acid]
The pIC50 of the first is 0.78 log units lower: 6.70 for the first, 7.48 for the second.

First: CN(c1ccc(Cl)cc1)c1ccc(C(=O)c2cc(Oc3ccc(F)c(F)c3)cc(C(=O)O)c2)cc1 [Example 8:9, 3-{4-[(4-Chlorophenyl)(methyl)amino]benzoyl}-5-(3,4-difluorophenoxy)benzoic acid]
Second: CN(c1ccc(Cl)cc1)c1ccc(C(=O)c2cc(Oc3cccc(Cl)c3)cc(C(=O)O)c2)cc1 [8:20, 3-(3-Chlorophenoxy)-5-{4-[(4-chlorophenyl)(methyl)amino]benzoyl}benzoic acid]
The pIC50 of the first is 0.46 log units higher: 7.52 for the first, 7.06 for the second.

`CN(c1ccc(Cl)cc1)c1ccc(C(=O)c2cc(Nc3ccccc3Cl)cc(C(=O)O)c2)nc1` [9:5, 3-{5-[(4-Chlorophenyl)(methyl)amino]picolinoyl}-5-(2-chlorophenylamino)-benzoic acid] and `CN(c1ccc(Cl)cc1)c1ccc(C(=O)c2cc(Nc3cccc(Cl)c3)cc(C(=O)O)c2)nc1` [Example 9:2, 3-{5-[(4-Chlorophenyl)(methyl)amino]picolinoyl}-5-(3-chlorophenylamino)-benzoic acid] are within 0.2 log units of each other in pIC50: 6.80 for the first, 6.61 for the second.

`COc1ccc(NC(=O)c2cc(C(=O)O)cc(C(=O)c3ccc(N(C)c4ccc(Cl)cc4)cc3)c2)cc1OC` [2:14, 3-{4-[(4-Chlorophenyl)(methyl)amino]benzoyl}-5-(3,4-dimethoxyphenyl-carbamoyl)benzoic acid] and `CN(c1ccc(Cl)cc1)c1ccc(C(=O)c2cc(C(=O)O)cc(C(=O)Nc3cc(F)ccc3F)c2)cc1` [2:15, 3-{4-[(4-Chlorophenyl)(methyl)amino]benzoyl}-5-(2,5-difluorophenyl-carbamoyl)benzoic acid] are within 0.2 log units of each other in pIC50: 6.03 for the first, 6.17 for the second.

`CN(c1ccc(Cl)cc1)c1ccc(C(=O)c2cc(Sc3ccccc3)cc(C(=O)O)c2)nc1` [19:4, 3-{5-[(4-Chlorophenyl)(methyl)amino]picolinoyl}-5-phenylsulfanylbenzoic acid] and `CN(c1ccc(Cl)cc1)c1ccc(C(=O)c2cc(C(=O)O)cc(-c3cccc(Cl)c3)c2)nc1` [Example 12:1, 3′-Chloro-5-{5-[(4-chlorophenyl)(methyl)amino]picolinoyl}biphenyl-3-carboxylic acid] are within 0.2 log units of each other in pIC50: 6.68 for the first, 6.74 for the second.

`CN(c1ccc(Cl)cc1)c1ccc(C(=O)c2cc(C(=O)O)cc(N3CCCCC3)c2)nc1` [9:37, 3-{5-[(4-Chlorophenyl)(methyl)amino]picolinoyl}-5-(1-piperidinyl)benzoic acid] and `CN(c1ccc(Cl)cc1)c1ccc(C(=O)c2cc(C(=O)O)cc(N3CCc4ccccc4C3)c2)nc1` [9:13, 3-{5-[(4-Chlorophenyl)(methyl)amino]picolinoyl}-5-(1,2,3,4-tetrahydroiso-quinolin-2-yl)benzoic acid] are within 0.2 log units of each other in pIC50: 6.30 for the first, 6.27 for the second.

First: CN(c1ccc(Cl)cc1)c1ccc(C(=O)c2cc(C(=O)O)cc(-c3ccc(Cl)cc3)c2)nc1 [12:2, 4′-Chloro-5-{5-[(4-chlorophenyl)(methyl)amino]picolinoyl}biphenyl-3-carboxylic acid]
Second: CN(c1ccc(Cl)cc1)c1ccc(C(=O)c2cc(C(=O)O)cc(N(C)c3ccc(Cl)cc3)c2)nc1 [9:3, 3-[(4-Chlorophenyl)(methyl)amino]-5-{5-[(4-chlorophenyl)(methyl)amino]-picolinoyl}benzoic acid]
The pIC50 of the first is 1.00 log units lower: 6.35 for the first, 7.35 for the second.

`CC(=O)N(c1ccccc1)c1cc(C(=O)O)cc(C(=O)c2ccc(N(CC3CC3)c3ccc(Cl)cc3)cn2)c1` [9:19, 3-{5-[(4-Chlorophenyl)(cyclopropylmethyl)amino]picolinoyl}-5-(N-phenylacet-amido)benzoic acid] and `CN(c1ccc(Cl)cc1)c1ccc(C(=O)c2cc(C(=O)O)cc(N(CC3(C)COC3)c3ccccc3)c2)nc1` [9:15, 3-{5-[(4-Chlorophenyl)(methyl)amino]picolinoyl}-5-{[(3-methyloxetan-3-yl)-methyl](phenyl)amino}benzoic acid] are within 0.2 log units of each other in pIC50: 7.40 for the first, 7.30 for the second.

`CN(c1ccc(Cl)cc1)c1ccc(C(=O)c2cc(C(=O)O)cc(N(C(=O)C3CCOCC3)c3ccccc3)c2)cc1` [10:34, 3-{4-[(4-Chlorophenyl)(methyl)amino]benzoyl}-5-[(N-phenyl)-4-tetrahydro-pyrancarboxamido]benzoic acid] and `C=CCCC(=O)N(c1ccccc1)c1cc(C(=O)O)cc(C(=O)c2ccc(N(C)c3ccc(Cl)cc3)cc2)c1` [10:32, 3-{4-[(4-Chlorophenyl)(methyl)amino]benzoyl}-5-[(N-phenyl)pent-4-enamido]-benzoic acid] are within 0.2 log units of each other in pIC50: 6.09 for the first, 6.18 for the second.

First: CN(c1ccc(Cl)cc1)c1ccc(C(=O)c2cc(Oc3ccccc3)cc(C(=O)O)c2)cc1 [8:11, 3-{4-[(4-Chlorophenyl)(methyl)amino]benzoyl}-5-phenoxybenzoic acid]
Second: CN(c1ccc(Cl)cc1)c1ccc(C(=O)c2cc(Nc3ccccc3OC(F)(F)F)cc(C(=O)O)c2)cc1 [10:4, 3-{4-[(4-Chlorophenyl)(methyl)amino]benzoyl}-5-(2-(trifluoromethoxy)-phenylamino)benzoic acid]
The pIC50 of the first is 0.52 log units higher: 7.21 for the first, 6.69 for the second. The first is the more potent here.

`CN(c1ccc(Cl)cc1)c1ccc(C(=O)c2cc(Nc3ccc4c(c3)OCO4)cc(C(=O)O)c2)nc1` [9:29, 3-{5-[(4-Chlorophenyl)(methyl)amino]picolinoyl}-5-(3,4-methylenedioxy-phenylamino)benzoic acid] and `CN(c1ccc(Cl)cc1)c1ccc(C(=O)c2cc(Nc3ccc4c(c3)OCCO4)cc(C(=O)O)c2)nc1` [9:33, 3-{5-[(4-Chlorophenyl)(methyl)amino]picolinoyl}-5-(3,4-ethylenedioxy-phenylamino)benzoic acid] are within 0.2 log units of each other in pIC50: 6.38 for the first, 6.33 for the second.

Going from `CCC(CC)C(=O)N(c1ccccc1)c1cc(C(=O)O)cc(C(=O)c2ccc(N(C)c3ccc(Cl)cc3)cc2)c1` [10:33, 3-{4-[(4-Chlorophenyl)(methyl)amino]benzoyl}-5-(2-ethyl-N-phenylbutan-amido)benzoic acid] to `CN(c1ccc(Cl)cc1)c1ccc(C(=O)c2cc(C(=O)O)cc(N(CC3(C)COC3)c3ccccc3F)c2)cc1` [10:28, 3-{4-[(4-Chlorophenyl)(methyl)amino]benzoyl}-5-{(2-fluorophenyl)[(3-methyl-oxetan-3-yl)methyl]amino}benzoic acid], the pIC50 rises from 6.12 to 7.17 (1.05 log units). The second is the more potent here.

`CN(Cc1ccc(Cl)cc1)c1cc(C(=O)O)cc(C(=O)c2ccc(N(C)c3ccc(Cl)cc3)cn2)c1` [9:12, 3-((4-Chlorobenzyl)(methyl)amino)-5-{5-[(4-chlorophenyl)(methyl)amino]-picolinoyl}benzoic acid] and `CN(c1ccc(Cl)cc1)c1ccc(C(=O)c2cc(C(=O)O)cc(N(C)c3cccc(Cl)c3)c2)nc1` [Example 9:1, 3-[(3-Chlorophenyl)(methyl)amino]-5-{5-[(4-chlorophenyl)(methyl)amino]-picolinoyl}benzoic acid] are within 0.2 log units of each other in pIC50: 6.77 for the first, 6.83 for the second.

Going from `COc1ccc(COc2cc(C(=O)O)cc(C(=O)c3ccc(N(C)c4ccc(Cl)cc4)cn3)c2)cc1` [Example 11:1, 3-{5-[(4-Chlorophenyl)(methyl)aminol]picolinoyl}-5-(4-methoxybenzyloxy)benzoic acid] to `COc1cccc(Nc2cc(C(=O)O)cc(C(=O)c3ccc(N(C)c4ccc(Cl)cc4)cn3)c2)c1` [9:31, 3-{5-[(4-Chlorophenyl)(methyl)amino]picolinoyl}-5-(3-methoxyphenylamino)-benzoic acid], the pIC50 rises from 6.05 to 6.28 (0.23 log units). The second is the more potent here.

`CN(c1ccc(Cl)cc1)c1ccc(C(=O)c2cc(C(=O)O)cc(C(=O)Nc3ccc(Cl)cc3)c2)nc1` [2:3, 3-{5-[(4-Chlorophenyl)(methyl)amino]picolinoyl}-5-(4-chlorophenyl-carbamoyl)-benzoic acid] and `CN(c1ccc(Cl)cc1)c1ccc(C(=O)c2cc(NC(=O)c3cccc(Cl)c3)cc(C(=O)O)c2)nc1` [2:9, 3-(3-Chlorobenzamido)-5-{5-[(4-chlorophenyl)(methyl)amino]picolinoyl}benzoic acid] are within 0.2 log units of each other in pIC50: 6.46 for the first, 6.56 for the second.

Compared with `CN(c1ccc(Cl)cc1)c1ccc(C(=O)c2cc(C(=O)O)cc(N(C)c3ccc(Cl)cc3Cl)c2)cc1` [10:13, 3-{4-[(4-Chlorophenyl)(methyl)amino]benzoyl}-5-[(2,4-dichlorophenyl)-(methyl)amino]benzoic acid], `CN(c1ccc(Cl)cc1)c1ccc(C(=O)c2cc(Nc3cc(F)ccc3F)cc(C(=O)O)c2)cc1` [10:5, 3-{4-[(4-Chlorophenyl)(methyl)amino]benzoyl}-5-(2,5-difluorophenylamino)-benzoic acid] is 0.72 log units lower in pIC50: 7.40 for the first, 6.68 for the second.
